Values of other authors as cited in patent US11185067B2, “Attractants for rats” (priority 2015, dated 2021).

Test system: rats
Conditions: odor-painted glass rods inserted into cage; Zhang et al. 2008, 2011

| Structure (SMILES) | effects on rat behavior |
| --- | --- |
| CCCCCCCC(C)=O [2-nonanone] | inducing sniffing or licking |
| CCCC(=O)CCC [4-heptanone] | inducing sniffing or licking |
| CCCCCC(C)=O [2-heptanone] | inducing sniffing or licking |
